Laboratory results taken from patent US6548544B1, “Method of treatment of priapism without raising systemic blood pressure” (The National University of Singapore, priority 1999, dated 2003).

Legend:
[1] = system: Pharmacologically Induced Prolonged Erection (Pipe); experiment: Effect on papaverine- and phenoxybenzamine-induced prolonged erection (PIPE), penile length, baboons; assay type: in vivo, baboon
Procedure: (§1) Six male baboons weighing between 8 kg and 12 kg were used for the experiment. The animals were sedated with ketamine and anaesthetised with intravenous pentobarbitone injected through an indwelling venous catheter. Drugs were injected into the right corpora cavornosa at the mid-third of the shaft using a 29G needle and 1 ml syringe. Blood pressure was monitored through a cannulated femoral artery connected to the transducer. A measuring tape was used to measure penile length visually from a marked point at the base of the penis to the tip of urethral orifice. Changes in penile length were recorded for a period of 100 min after injection.
Intracavernous injection of papaverine (40 mg) or phenoxybenzamine (3 mg) which produced maximal penile length within 20 and 40 min were repeated one week later and prostaglandin A2 was given at the peak time of the turgidity.
(§2) In baboons, intracavernous injection of papaverine (40 mg) or phenoxybenzamine (3 mg) produced a 130% increase in penile length within […] after administration (Table 1). This increase in penile length lasted for more than 100 min. This was repeated one week later and when prostaglandin A2 was injected intracavernosally at the maximum rigidity 20 min after the drug administration, the latter produced a marked reduction in penile length and within 40 min of injection, the penile size reduced to the original state of rugosity (Table 1). The fall in systemic blood pressure produced by prostaglandin A2 ranged from 8 to 16 mmHg. Each value reported in Table 1 represents the mean of six experiments.

[2] = set-up: species or system baboon; conditions: in vivo
Procedure: as §1, §2

[3] = system: prolonged erection induced by 60 mg of papaverine; experiment: Effect on papaverine-induced prolonged erection in human patients and volunteers; assay type: in vivo; conditions: for Mean Decrease in Length of Turgid Penis %: erection induced by 60 mg papaverine
Procedure: In human patients and human volunteers, intracavernous injection of prostaglandin A2 (150 μg) was tested on prolonged erection (lasting more than 4 hours) induced by 60 mg of papaverine.
This was corrected by an additional injection of prostaglandin A2 (100 μg). The fall in mean systemic blood pressure ranged from 7 to 10 mmHg (Table 2).

[4] = system: human corpora cavernosa muscle; experiment: Contractile response of human corpus cavernosum smooth muscle in vitro; assay type: cell-based
Text: FIG. 2 is a graphical representation showing contractile response of prostaglandin A2 on human corpus cavernosum smooth muscle.
Prostaglandin A2 is 8.2 times stronger than noradrenaline in contracting human corpora cavernosa muscle in vitro and 500, 2.5 and 50 times stronger than dopamine, adrenaline and aramine, respectively (FIG. 2).

[5] = system: cavernous nerve stimulation-induced intracavernous pressure increase; experiment: Intracavernous pressure (ICP) response to cavernous nerve stimulation, in vivo rat model; set-up: species or system Sprague Dawley rats; conditions: for Cavernous pressure (mmHg) recording: nerve stimulation
Procedure: The cavernous nerve is a relatively well-defined nerve that exits from the major pelvic ganglion and carries a large component of the autonomic input to the penis. Through electrical stimulation of this nerve, the changes in the peripheral neural mechanisms controlling penile erection can be observed in the animal model. The responses are recorded as concomitant alterations in the ICP following stimulation of this nerve branch.

[6] = rat, in vivo
Procedure: METHOD: Male Sprague Dawley rats (500-700 g) were anaesthetized with sodium pentobarbital (45 mg/kg, intraperitoneal) and the trachea intubated (14G jelco catheter) for respiration. The left external jugular vein and the right common carotid artery were cannulated (PE 50 tubing) for drug infusion and blood pressure monitoring respectively. Through a lower median abdominal incision, the lateral prostate was exposed and the fascia around the cavernous nerve separated through fine dissection. The exposed nerve was suspended on bipolar hook electrode for stimulation. Through transverse perineal incision, a 27G needle was inserted into the penile crus for pressure recording. Systemic and intracavernous pressures were measured by transducers (Ugo Basile) and recorded with MacLab analogue-digital converter (AD instruments). To initiate the experiment, the cavernous nerve was stimulated with square wave pulses of 1 millisecond duration at 20 Hertz and 2 volts with the resting ICP recording.

In the case of `CCCCC[C@H](O)/C=C/[C@H]1C=CC(=O)[C@@H]1C/C=C\CCCC(=O)O` [AS-8, prostaglandin A2], the “Mean Change in Penile Length (% of Control)” value (shortened to “Mean Change … (% of Control)”) ([1]; papaverine 40 mg followed by AS-8 100 μg 20 min later, 1 min after injection) was 32%, the “Mean Change … (% of Control)” value ([1]; papaverine 40 mg followed by AS-8 100 μg 20 min later, 2 min after injection) was 38% and the “Mean Change … (% of Control)” value ([1]; papaverine 40 mg followed by AS-8 100 μg 20 min later, 5 min after injection) was 65%. The “Mean Change … (% of Control)” value ([1]; papaverine 40 mg followed by AS-8 100 μg 20 min later, 10 min after injection) was 130%, the “Mean Change … (% of Control)” value ([1]; papaverine 40 mg followed by AS-8 100 μg 20 min later, 20 min after injection) was 142% and the “Mean Change … (% of Control)” value ([1]; papaverine 40 mg followed by AS-8 100 μg 20 min later, 40 min after injection) was 15%. The “Mean Change … (% of Control)” value ([1]; papaverine 40 mg followed by AS-8 100 μg 20 min later, 60 min after injection) was 0%, the “Mean Change … (% of Control)” value ([1]; papaverine 40 mg followed by AS-8 100 μg 20 min later, 80 min after injection) was 0% and the “Mean Change … (% of Control)” value ([1]; papaverine 40 mg followed by AS-8 100 μg 20 min later, 100 min after injection) was 0%. The “Mean Change … (% of Control)” value ([1]; phenoxybenzamine 3 mg followed by AS-8 100 μg 20 min later, 1 min after injection) was 7%, the “Mean Change … (% of Control)” value ([1]; phenoxybenzamine 3 mg followed by AS-8 100 μg 20 min later, 2 min after injection) was 15% and the “Mean Change … (% of Control)” value ([1]; phenoxybenzamine 3 mg followed by AS-8 100 μg 20 min later, 5 min after injection) was 20%. For the same molecule, the “Mean Change … (% of Control)” value ([1]; phenoxybenzamine 3 mg followed by AS-8 100 μg 20 min later, 10 min after injection) was 38%, the “Mean Change … (% of Control)” value ([1]; phenoxybenzamine 3 mg followed by AS-8 100 μg 20 min later, 20 min after injection) was 85% and the “Mean Change … (% of Control)” value ([1]; phenoxybenzamine 3 mg followed by AS-8 100 μg 20 min later, 40 min after injection) was 10%. For the same molecule, the “Mean Change … (% of Control)” value ([1]; phenoxybenzamine 3 mg followed by AS-8 100 μg 20 min later, 60 min after injection) was 0%, the “Mean Change … (% of Control)” value ([1]; phenoxybenzamine 3 mg followed by AS-8 100 μg 20 min later, 80 min after injection) was 0% and the “Mean Change … (% of Control)” value ([1]; phenoxybenzamine 3 mg followed by AS-8 100 μg 20 min later, 100 min after injection) was 0%. For the same molecule, the “time until penile size reduced to the original state of rugosity” value ([1]; prostaglandin A2 intracavernosally at maximum rigidity 20 min after papaverine or phenoxybenzamine) was no more than 40 min, the “fall in systemic blood pressure” value [2] was 8-16 mmHg and the “Mean Decrease in Length of Turgid Penis %” value ([3]; Patients (2), 150 μg intracavernous, 1 min after AS-8 injection) was 10%. For the same molecule, the “Mean Decrease in Length of Turgid Penis %” value ([3]; Patients (2), 150 μg intracavernous, 5 min after AS-8 injection) was 50%, the “Mean Decrease in Length of Turgid Penis %” value ([3]; Patients (2), 150 μg intracavernous, 10 min after AS-8 injection) was 80% and the “Mean Decrease in Length of Turgid Penis %” value ([3]; Patients (2), 150 μg intracavernous, 20 min after AS-8 injection) was 90%. The “Mean Decrease in Length of Turgid Penis %” value ([3]; Patients (2), 150 μg intracavernous, 30 min after AS-8 injection) was 100%, the “Mean Decrease in Length of Turgid Penis %” value ([3]; Volunteers (3), 150 μg intracavernous, 1 min after AS-8 injection) was 10% and the “Mean Decrease in Length of Turgid Penis %” value ([3]; Volunteers (3), 150 μg intracavernous, 5 min after AS-8 injection) was 30%. The “Mean Decrease in Length of Turgid Penis %” value ([3]; Volunteers (3), 150 μg intracavernous, 10 min after AS-8 injection) was 75%, the “Mean Decrease in Length of Turgid Penis %” value ([3]; Volunteers (3), 150 μg intracavernous, 20 min after AS-8 injection) was 80% and the “Mean Decrease in Length of Turgid Penis %” value ([3]; Volunteers (3), 150 μg intracavernous, 30 min after AS-8 injection) was 95%. For the same molecule, the “subjects with maximal reduction in rigidity and penile length to the rugose state within 30 min after injection” value ([3]; patients and volunteers, erection induced by 60 mg papaverine for 4 hours or more, 150 μg intracavernous) was “four out of five subjects”, the “relapse of tumescence after first injection” value ([3]; volunteers, first injection 150 μg, corrected by additional injection of 100 μg) was “In one volunteer, there was a relapse of tumescence within 60 min” and the “times stronger than adrenaline in contracting human corpora cavernosa muscle” value ([4]; versus adrenaline) was 2.5 times. The “times stronger than aramine in contracting human corpora cavernosa muscle” value ([4]; versus aramine) was 50 times, the “times stronger than dopamine in contracting human corpora cavernosa muscle” value ([4]; versus dopamine) was 500 times and the “times stronger than noradrenaline in contracting human corpora cavernosa muscle” value ([4]; versus noradrenaline) was 8.2 times. The “prevention of intracavernous pressure increase to cavernous nerve stimulation” value [5] was “prevents, in a dose-dependent manner”, the “cavernous pressure elevations to subsequent nerve stimulations” value ([5]; intracavernous AS-8, all the doses tested, Analysis of Variance) was “significantly suppressed” and the “Cavernous pressure (mmHg) recording” value ([5]; AS-8 1 μg intracavernous, 2 Min after, Control before 45.76 ± 1.46) was 26.48 ± 4.62 mmHg. For the same molecule, the “Cavernous pressure (mmHg) recording” value ([5]; AS-8 1 μg intracavernous, 5 Min after, Control before 45.76 ± 1.46) was 22.48 ± 3.21 mmHg, the “Cavernous pressure (mmHg) recording” value ([5]; AS-8 1 μg intracavernous, 10 Min after, Control before 45.76 ± 1.46) was 26.94 ± 4.77 mmHg and the “Cavernous pressure (mmHg) recording” value ([5]; AS-8 1 μg intracavernous, 20 Min after, Control before 45.76 ± 1.46) was 24.42 ± 6.87 mmHg. For the same molecule, the “Cavernous pressure (mmHg) recording” value ([5]; AS-8 1 μg intracavernous, 30 Min after, Control before 45.76 ± 1.46) was 22.40 ± 5.34 mmHg, the “Cavernous pressure (mmHg) recording” value ([5]; AS-8 1 μg intracavernous, 30 Sec after, Control before 45.76 ± 1.46) was 33.83 ± 3.09 mmHg and the “Cavernous pressure (mmHg) recording” value ([5]; AS-8 2 μg intracavernous, 2 Min after, Control before 40.60 ± 2.58) was 22.29 ± 9.96 mmHg. The “Cavernous pressure (mmHg) recording” value ([5]; AS-8 2 μg intracavernous, 5 Min after, Control before 40.60 ± 2.58) was 26.42 ± 4.42 mmHg, the “Cavernous pressure (mmHg) recording” value ([5]; AS-8 2 μg intracavernous, 10 Min after, Control before 40.60 ± 2.58) was 24.49 ± 7.39 mmHg and the “Cavernous pressure (mmHg) recording” value ([5]; AS-8 2 μg intracavernous, 20 Min after, Control before 40.60 ± 2.58) was 31.84 ± 5.54 mmHg. For the same molecule, the “Cavernous pressure (mmHg) recording” value ([5]; AS-8 2 μg intracavernous, 30 Min after, Control before 40.60 ± 2.58) was 29.62 ± 4.62 mmHg, the “Cavernous pressure (mmHg) recording” value ([5]; AS-8 2 μg intracavernous, 30 Sec after, Control before 40.60 ± 2.58) was 35.29 ± 3.29 mmHg and the “Cavernous pressure (mmHg) recording” value ([5]; AS-8 4 μg intracavernous, 2 Min after, Control before 46.40 ± 1.59) was 16.07 ± 1.00 mmHg. The “Cavernous pressure (mmHg) recording” value ([5]; AS-8 4 μg intracavernous, 5 Min after, Control before 46.40 ± 1.59) was 14.90 ± 1.71 mmHg, the “Cavernous pressure (mmHg) recording” value ([5]; AS-8 4 μg intracavernous, 10 Min after, Control before 46.40 ± 1.59) was 15.00 ± 6.71 mmHg and the “Cavernous pressure (mmHg) recording” value ([5]; AS-8 4 μg intracavernous, 20 Min after, Control before 46.40 ± 1.59) was 18.30 ± 6.40 mmHg. The “Cavernous pressure (mmHg) recording” value ([5]; AS-8 4 μg intracavernous, 30 Min after, Control before 46.40 ± 1.59) was 17.05 ± 5.86 mmHg, the “Cavernous pressure (mmHg) recording” value ([5]; AS-8 4 μg intracavernous, 30 Sec after, Control before 46.40 ± 1.59) was 25.91 ± 5.57 mmHg and the “mean systemic blood pressure change” value [6] was “concurrent reduction in mean systemic blood pressure”.
